Calls of active or inactive are those of the source.
Key:
[1] = viability loss of HPDE-C7K cells – cell-based, fluorescence, HTS, primary screen (AID 431); format: functional; details: Homo sapiens
[2] = HPDE-C7 pancreatic duct cell viability loss – fluorescence, HTS (AID 430); format: functional, cell-based; details: Homo sapiens
[3] = target: T1, Aryl hydrocarbon receptor (Homo sapiens, UniProt P35869); assay: Luminescence-based cell-based high throughput dose response assay for activators of the Aryl Hydrocarbon Receptor (AHR). [Related pubchem assays: 2796 (Primary screen (AHR activators in singlicate)), 2845 (Confirmation screen (AHR activators in triplicate)), 434939 (Counterscreen (PXR activators in triplicate)), 2804 (Summary (AHR activators))]; format: ADME
T1 sequence (P35869 whole entry): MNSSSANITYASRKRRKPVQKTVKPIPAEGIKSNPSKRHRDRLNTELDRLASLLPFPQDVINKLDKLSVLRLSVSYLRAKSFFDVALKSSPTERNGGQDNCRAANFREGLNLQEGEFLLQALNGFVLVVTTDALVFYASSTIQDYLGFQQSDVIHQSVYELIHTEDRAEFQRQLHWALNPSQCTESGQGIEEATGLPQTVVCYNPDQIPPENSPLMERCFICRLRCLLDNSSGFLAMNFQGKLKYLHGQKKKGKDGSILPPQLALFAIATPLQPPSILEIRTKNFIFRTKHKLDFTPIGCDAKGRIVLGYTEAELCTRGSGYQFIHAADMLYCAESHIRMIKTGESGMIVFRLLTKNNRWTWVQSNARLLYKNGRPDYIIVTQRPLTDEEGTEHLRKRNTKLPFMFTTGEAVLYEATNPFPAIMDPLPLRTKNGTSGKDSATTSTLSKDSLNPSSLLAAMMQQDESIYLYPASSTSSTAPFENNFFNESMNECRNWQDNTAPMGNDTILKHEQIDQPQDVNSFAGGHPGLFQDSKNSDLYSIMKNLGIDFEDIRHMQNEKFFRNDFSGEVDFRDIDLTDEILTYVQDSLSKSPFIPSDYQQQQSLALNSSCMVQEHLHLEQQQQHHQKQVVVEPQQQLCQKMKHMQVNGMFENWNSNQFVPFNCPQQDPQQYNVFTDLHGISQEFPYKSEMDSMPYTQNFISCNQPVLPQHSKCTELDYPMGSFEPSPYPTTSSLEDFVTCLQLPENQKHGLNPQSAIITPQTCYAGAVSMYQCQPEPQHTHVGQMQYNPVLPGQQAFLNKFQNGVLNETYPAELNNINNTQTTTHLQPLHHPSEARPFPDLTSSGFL

[4] = IC50 of insulin release inhibition, rat insulinoma INS-1E line, 5 mM glucose, cell-based (AID 1117331); format: functional
[5] = cells
[6] = target: T2, Oxysterols receptor LXR-beta (Homo sapiens, UniProt P55055); format: functional, cell-based;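 note: Cell-based luminescence dose-response assay of agonist activity at LXR, run as a confirmatory counterscreen to a daf-12 agonist screen; HEK293 cells with Gal4-LXR fusion and GAL4-driven luciferase reporter; agonist potency from rising luciferase signal of a Gal4-LXR reporter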
T2 sequence (P55055 whole entry): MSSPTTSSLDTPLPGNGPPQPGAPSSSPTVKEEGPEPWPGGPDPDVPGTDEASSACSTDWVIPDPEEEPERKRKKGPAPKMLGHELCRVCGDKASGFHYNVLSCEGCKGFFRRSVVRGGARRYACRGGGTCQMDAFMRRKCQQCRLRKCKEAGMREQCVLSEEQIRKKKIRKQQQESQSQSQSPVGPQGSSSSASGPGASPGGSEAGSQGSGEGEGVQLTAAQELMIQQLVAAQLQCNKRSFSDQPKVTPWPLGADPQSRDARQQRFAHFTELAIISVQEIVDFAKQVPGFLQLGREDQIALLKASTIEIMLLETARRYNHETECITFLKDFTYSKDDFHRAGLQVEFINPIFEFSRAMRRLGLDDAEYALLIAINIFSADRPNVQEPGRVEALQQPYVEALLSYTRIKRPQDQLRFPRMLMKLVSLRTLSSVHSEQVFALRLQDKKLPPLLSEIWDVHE

[7] = growth inhibition of yeast DHODH-expressing 3D7 parasites – SYBR Green, dry powder samples, dose response (AID 1159570); format: functional, cell-based;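 note: parasite growth measured after 72 hours of compound exposure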
[8] = Dd2 malaria parasite growth inhibition potency – SYBR Green, dry powder samples, dose response (AID 1159566); format: functional, cell-based;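 note: potency for growth inhibition with lower SYBR green DNA signal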
[9] = growth inhibition of PfATP4-mutant resistant parasites – NITD609-resistant line, SYBR Green, dry powder, dose response (AID 1159571); format: functional, cell-based;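 note: parasites synchronized at ring stage by sorbitol before testing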
[10] = toxicity to human hepatoma HepG2 cells – cell-based, cherry-picked samples, cytotoxicity control, dose response (AID 1159577); format: functional
[11] = P. falciparum Dd2 growth inhibitors, dose response, SYBR Green, cherry-picked samples (AID 1159567); format: functional, cell-based
[12] = toxicity to human HepG2 hepatoma cells – cell-based, plate reader, dry powder samples, cytotoxicity control, dose response (AID 1159569); format: functional;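 note: inhibitor potency with signal falling toward the positive control level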
[13] = target: Peroxisome proliferator-activated receptor gamma/Nuclear receptor coactivator 3 (Homo sapiens, UniProt P37231); format: functional;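 note: agonist potency for raising coactivator recruitment to the receptor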
Chain of Peroxisome proliferator-activated receptor gamma/Nuclear receptor coactivator 3 (P37231 whole entry): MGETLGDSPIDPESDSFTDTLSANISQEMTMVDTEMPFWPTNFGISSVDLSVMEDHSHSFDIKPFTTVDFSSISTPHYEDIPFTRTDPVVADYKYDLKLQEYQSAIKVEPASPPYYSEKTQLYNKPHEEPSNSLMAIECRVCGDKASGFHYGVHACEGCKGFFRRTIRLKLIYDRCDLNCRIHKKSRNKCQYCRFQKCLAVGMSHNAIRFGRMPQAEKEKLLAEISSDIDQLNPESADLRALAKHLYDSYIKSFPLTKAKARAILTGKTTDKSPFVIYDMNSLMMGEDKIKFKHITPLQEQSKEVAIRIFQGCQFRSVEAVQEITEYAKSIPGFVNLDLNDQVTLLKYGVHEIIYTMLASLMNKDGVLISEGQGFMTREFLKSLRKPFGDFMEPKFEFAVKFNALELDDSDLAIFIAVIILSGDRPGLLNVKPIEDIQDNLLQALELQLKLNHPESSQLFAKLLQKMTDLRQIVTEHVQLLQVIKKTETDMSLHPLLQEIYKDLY
Chain of Peroxisome proliferator-activated receptor gamma/Nuclear receptor coactivator 3 (Q9Y6Q9 whole entry, further chain): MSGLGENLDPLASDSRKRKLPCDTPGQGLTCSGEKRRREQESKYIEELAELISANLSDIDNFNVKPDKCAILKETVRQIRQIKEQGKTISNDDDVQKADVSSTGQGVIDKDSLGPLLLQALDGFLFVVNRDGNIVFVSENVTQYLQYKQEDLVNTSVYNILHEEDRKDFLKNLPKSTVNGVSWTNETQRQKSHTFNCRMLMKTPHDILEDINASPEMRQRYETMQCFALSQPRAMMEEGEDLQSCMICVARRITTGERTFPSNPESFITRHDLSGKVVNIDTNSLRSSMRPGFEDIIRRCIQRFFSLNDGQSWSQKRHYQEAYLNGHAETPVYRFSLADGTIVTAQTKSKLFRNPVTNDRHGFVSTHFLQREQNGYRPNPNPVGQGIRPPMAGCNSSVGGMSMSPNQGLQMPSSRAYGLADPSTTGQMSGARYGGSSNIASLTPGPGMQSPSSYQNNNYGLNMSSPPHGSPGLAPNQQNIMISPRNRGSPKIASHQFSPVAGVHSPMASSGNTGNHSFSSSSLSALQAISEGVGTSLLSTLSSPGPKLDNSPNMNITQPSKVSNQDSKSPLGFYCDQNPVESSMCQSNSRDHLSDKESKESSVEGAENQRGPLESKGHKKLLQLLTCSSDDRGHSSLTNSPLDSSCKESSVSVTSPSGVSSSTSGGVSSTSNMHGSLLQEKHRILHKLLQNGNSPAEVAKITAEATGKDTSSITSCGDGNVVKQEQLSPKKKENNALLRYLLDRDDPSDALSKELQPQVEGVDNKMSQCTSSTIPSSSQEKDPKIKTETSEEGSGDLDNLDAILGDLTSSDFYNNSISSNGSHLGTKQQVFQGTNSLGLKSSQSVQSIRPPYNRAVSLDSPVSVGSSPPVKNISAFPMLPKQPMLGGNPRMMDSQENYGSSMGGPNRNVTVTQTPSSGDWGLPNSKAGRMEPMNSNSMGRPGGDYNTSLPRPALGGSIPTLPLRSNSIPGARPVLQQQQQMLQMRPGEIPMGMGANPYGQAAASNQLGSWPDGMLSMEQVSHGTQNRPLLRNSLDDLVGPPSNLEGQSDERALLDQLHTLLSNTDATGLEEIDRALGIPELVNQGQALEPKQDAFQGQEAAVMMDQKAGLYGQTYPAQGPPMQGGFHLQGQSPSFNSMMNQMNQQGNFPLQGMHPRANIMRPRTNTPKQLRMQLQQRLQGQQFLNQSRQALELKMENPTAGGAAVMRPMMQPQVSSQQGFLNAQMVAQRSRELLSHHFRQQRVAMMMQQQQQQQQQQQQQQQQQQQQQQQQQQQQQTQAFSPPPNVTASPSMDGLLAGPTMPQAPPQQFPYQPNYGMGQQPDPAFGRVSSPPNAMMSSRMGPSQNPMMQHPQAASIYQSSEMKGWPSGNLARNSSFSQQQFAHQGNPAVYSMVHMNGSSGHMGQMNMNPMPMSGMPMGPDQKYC

[14] = target: Peroxisome proliferator-activated receptor gamma/Nuclear receptor coactivator 1 (Homo sapiens, UniProt P37231); format: functional;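 note: agonist potency as compounds enhance coactivator SRC-1 recruitment to PPARgamma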
Chain of Peroxisome proliferator-activated receptor gamma/Nuclear receptor coactivator 1 (P37231 whole entry): as the sequence (P37231 whole entry) above
Chain of Peroxisome proliferator-activated receptor gamma/Nuclear receptor coactivator 1 (Q15788 whole entry, further chain): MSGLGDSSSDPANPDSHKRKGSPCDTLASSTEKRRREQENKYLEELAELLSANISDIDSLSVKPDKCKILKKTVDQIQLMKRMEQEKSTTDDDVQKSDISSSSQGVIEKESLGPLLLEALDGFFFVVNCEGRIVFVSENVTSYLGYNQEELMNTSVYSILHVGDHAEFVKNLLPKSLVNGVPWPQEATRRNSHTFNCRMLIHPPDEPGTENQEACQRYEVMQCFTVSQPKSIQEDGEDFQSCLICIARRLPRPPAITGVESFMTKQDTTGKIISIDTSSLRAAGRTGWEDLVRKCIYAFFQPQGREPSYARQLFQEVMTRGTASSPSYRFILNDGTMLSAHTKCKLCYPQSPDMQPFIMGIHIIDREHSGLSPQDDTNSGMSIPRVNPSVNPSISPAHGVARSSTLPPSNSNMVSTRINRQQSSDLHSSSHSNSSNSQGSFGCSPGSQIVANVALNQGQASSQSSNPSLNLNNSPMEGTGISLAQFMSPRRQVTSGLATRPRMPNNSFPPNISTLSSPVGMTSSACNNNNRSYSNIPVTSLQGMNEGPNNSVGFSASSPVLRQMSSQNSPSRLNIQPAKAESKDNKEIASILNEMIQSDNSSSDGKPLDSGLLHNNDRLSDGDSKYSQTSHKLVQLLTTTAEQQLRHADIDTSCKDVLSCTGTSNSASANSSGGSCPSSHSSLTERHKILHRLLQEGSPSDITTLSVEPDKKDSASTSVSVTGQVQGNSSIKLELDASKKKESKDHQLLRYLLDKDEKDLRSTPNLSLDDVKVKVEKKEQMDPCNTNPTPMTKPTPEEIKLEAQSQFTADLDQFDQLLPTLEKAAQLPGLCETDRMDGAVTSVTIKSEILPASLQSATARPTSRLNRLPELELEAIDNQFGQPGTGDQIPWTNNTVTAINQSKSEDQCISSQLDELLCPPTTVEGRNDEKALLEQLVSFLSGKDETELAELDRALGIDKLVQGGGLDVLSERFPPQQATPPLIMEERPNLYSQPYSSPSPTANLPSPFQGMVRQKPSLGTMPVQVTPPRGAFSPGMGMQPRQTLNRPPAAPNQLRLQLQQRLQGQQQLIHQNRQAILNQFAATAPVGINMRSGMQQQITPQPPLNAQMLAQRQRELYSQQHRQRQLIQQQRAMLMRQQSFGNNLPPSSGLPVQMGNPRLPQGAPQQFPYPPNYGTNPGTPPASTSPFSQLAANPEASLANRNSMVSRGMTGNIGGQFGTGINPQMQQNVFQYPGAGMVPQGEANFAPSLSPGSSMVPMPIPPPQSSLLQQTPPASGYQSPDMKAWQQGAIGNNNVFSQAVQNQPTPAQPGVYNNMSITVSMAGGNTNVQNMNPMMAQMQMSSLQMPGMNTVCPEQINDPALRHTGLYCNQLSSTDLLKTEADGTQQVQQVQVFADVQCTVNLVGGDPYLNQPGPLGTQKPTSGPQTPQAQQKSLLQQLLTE

[15] = target: Peroxisome proliferator-activated receptor gamma/Nuclear receptor coactivator 2 (Homo sapiens, UniProt P37231); format: functional;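 note: agonist potency for raising coactivator recruitment to the receptor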
[16] = A2780 cell killing – plate reader, dry powder samples, cytotoxicity control, dose response (AID 743046); format: functional, cell-based
[17] = toxicity toward immortalized ovarian surface epithelium – cell-based, plate reader, dry powder samples, cytotoxicity control for PAX8 inhibitor project, dose response (AID 743045); format: functional
[18] = OVCAR8 cell viability loss – plate reader, dry powder samples, PAX8 project, dose response (AID 743197); format: functional, cell-based; details: OVCAR-8
[19] = IGROV1 cell killing – plate reader, dry powder samples, PAX8 inhibitor project, dose response (AID 743043); format: functional, cell-based; details: IGROV-1
[20] = OVCAR-3 cell viability loss – plate reader, dry powder samples, PAX8 inhibitor project, dose response (AID 743044); format: functional, cell-based
[21] = target: Paired box protein Pax-8 (Homo sapiens, UniProt Q06710); assay: PAX8 transcriptional activity inhibition in RMG-I – RMG-I cells, luciferase, cherry-pick, dose response (AID 687027); format: functional, cell-based;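 note: luciferase reporter driven by Pax8 target thyroperoxidase promoter measured by SteadyGlo luminescence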
Chain of Paired box protein Pax-8 (Q06710 whole entry): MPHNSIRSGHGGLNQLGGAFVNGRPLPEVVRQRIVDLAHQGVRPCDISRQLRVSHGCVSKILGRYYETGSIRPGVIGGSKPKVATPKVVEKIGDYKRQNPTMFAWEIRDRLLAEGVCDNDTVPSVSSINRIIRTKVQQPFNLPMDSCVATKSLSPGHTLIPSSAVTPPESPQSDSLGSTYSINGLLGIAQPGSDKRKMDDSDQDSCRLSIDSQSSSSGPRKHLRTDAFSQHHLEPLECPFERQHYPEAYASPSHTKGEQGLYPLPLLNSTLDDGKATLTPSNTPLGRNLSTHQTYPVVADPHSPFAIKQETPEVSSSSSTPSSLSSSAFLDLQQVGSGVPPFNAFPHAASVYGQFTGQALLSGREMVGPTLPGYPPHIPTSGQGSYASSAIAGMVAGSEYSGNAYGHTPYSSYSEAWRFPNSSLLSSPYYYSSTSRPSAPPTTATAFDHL

[22] = M. tuberculosis H37Rv growth inhibitors, H37Rv strain (AID 1626); format: functional
[23] = target: T3, Neuropeptide Y receptor type 2 (Homo sapiens, UniProt P49146); format: functional, cell-based;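 note: HEK293 cells expressing the receptor and a CNG channel; stimulus was NPY near EC95 followed by isoproterenol to raise cAMP; antagonist potency measured as restoring cAMP signal that NPY suppresses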
T3 sequence (P49146 whole entry): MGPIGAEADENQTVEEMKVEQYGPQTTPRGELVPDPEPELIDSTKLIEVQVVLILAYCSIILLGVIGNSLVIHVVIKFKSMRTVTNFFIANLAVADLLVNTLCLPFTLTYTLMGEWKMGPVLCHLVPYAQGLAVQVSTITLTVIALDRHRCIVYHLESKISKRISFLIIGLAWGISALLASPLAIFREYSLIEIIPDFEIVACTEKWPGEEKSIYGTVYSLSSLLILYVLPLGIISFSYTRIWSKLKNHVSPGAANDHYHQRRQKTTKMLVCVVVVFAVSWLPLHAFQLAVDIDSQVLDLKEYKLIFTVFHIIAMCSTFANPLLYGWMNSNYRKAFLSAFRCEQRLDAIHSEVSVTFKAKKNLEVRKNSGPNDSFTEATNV

[24] = target: T4, Neuropeptide Y receptor type 1 (Homo sapiens, UniProt P25929); format: functional;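 note: HEK293 cells with a CNG channel challenged with NPY then isoproterenol; potency as antagonist that reverses NPY suppression of cAMP signal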
T4 sequence (P25929 whole entry): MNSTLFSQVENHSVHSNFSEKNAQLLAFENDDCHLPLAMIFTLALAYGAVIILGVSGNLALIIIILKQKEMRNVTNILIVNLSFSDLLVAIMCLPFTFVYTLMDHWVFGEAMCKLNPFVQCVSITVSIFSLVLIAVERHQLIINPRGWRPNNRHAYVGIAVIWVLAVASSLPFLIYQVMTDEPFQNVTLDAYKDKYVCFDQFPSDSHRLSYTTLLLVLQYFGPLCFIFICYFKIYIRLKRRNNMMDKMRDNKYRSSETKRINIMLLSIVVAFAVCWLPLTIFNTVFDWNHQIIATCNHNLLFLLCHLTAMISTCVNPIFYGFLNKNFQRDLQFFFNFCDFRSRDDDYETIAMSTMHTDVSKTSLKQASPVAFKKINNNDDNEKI

[25] = Luminescence Cell-Based Dose Confirmation to Identify Activators of 5'UTR Stem-Loop Driven Alpha-Synuclein mRNA Translation in H4 Neuroglioblastoma Cells. [Related pubchem assays: 1829 (Project Summary), 1814 (Primary HTS)]; format: functional
[26] = Luminescence Cell-Based Dose Confirmation HTS to Identify Activators of 5'UTR Stem-Loop Driven Alpha-Synuclein mRNA Translation in H4 Neuroglioblastoma Cells. [Related pubchem assays: 1829 (Project Summary), 1814 (Primary HTS)]; format: functional
[27] = Luminescence Cell-Based Dose Response to Identify Activators of 5'UTR Stem-Loop Driven Prion Protein mRNA Translation in H4-C Neuroglioblastoma Cells. [Related pubchem assays: 1829 (Project Summary), 1814 (Primary HTS)]; format: functional
[28] = Luminescence Cell-Based Dose Response HTS to Identify Activators of Luciferase Translation or Activity in H4 […] Cells. [Related pubchem assays: 1829 (Project Summary), 1814 (Primary HTS)]; format: functional
[29] = Luminescence Cell-Based Dose Response to Identify Activators of Luciferase Translation or Activity in H4-C Neuroglioblastoma Cells. [Related pubchem assays: 1829 (Project Summary), 1814 (Primary HTS)]; format: functional

## CC(C)(C)NC(=O)C1N(c2cccnc2)C(=O)C2C(C(=O)Nc3ccccc3F)C3(C)C=CC21O3 (stereo not given)
[1]
  EC50: > 20 µM (not active)
[2]
  EC50: > 20 µM (not active)

## Cc1cc(O)nc(N/N=C/c2ccc(Br)s2)n1
[3]
  EC50: 8.5 µM (active)

## CCO[C@H](Cc1ccc(OCCc2ccc(OS(C)(=O)=O)cc2)cc1)C(=O)O
[4]
  IC50: > 33.3 µM (inactive)

## Cc1n[nH]c2c1C(c1ccc(-c3ccccc3C#N)o1)C(C#N)=C(N)O2 (stereo not given)
[1]
  EC50: 16.3 µM (active)
[2]
  EC50: 7.78 µM (active)

## C/C(=N\c1ccc(C)cc1)c1sc2ccccc2c1O
[5]
  EC50: > 67.5 µM (inactive)
[6]
  EC50: > 67.5 µM (inactive)

## [O-][n+]1onc2c1CCc1nnc(-c3ccccc3)cc1-2
[3]
  EC50: 2.83 µM (active)

## OC[C@H]1[C@@H](c2ccc(-c3ccc(F)cc3)cc2)[C@@H]2CN(CCC(F)(F)F)CCCCN12
[7]
  AC50: 1.21 µM (active)
[8]
  AC50: 0.518 µM (active)
[9]
  AC50: 1.1 µM (active)
[10]
  AC50: 20.5 µM (active)
[11]
  AC50: 0.726 µM (active)
[12]
  AC50: 17 µM (active)

## Cc1cccc(C)c1NC(=S)Nc1c(C)n(C)n(-c2ccccc2)c1=O
[13]
  EC50: > 79.4 µM (not active)
[14]
  EC50: > 79.4 µM (not active)
[15]
  EC50: > 79.4 µM (not active)

## C[C@H](CO)N1C[C@H](C)[C@@H](CN(C)Cc2ccccc2)OCCCC[C@H](C)Oc2ccc(NC(=O)Nc3ccc(C(F)(F)F)cc3)cc2C1=O
[16]
  AC50: 36.2 µM (active)
[17]
  AC50: 39.8 µM (active)
[18]
  AC50: 25.2 µM (active)
[19]
  AC50: 22.4 µM (active)
[20]
  AC50: 16.7 µM (active)
[21]
  AC50: 13.5 µM (active)

## N#Cc1ccc(-c2ccc([C@@H]3[C@@H]4CN(C(=O)C5CCCCC5)C[C@H]3N4)cc2)cc1
[7]
  AC50: 2.4 µM (active)
[8]
  AC50: 1.34 µM (active)
[9]
  AC50: 2.85 µM (active)
[11]
  AC50: 2.79 µM (active)
[12]
  AC50: 23.8 µM (active)

## CC(C)c1ccc(NC(=O)COc2ccc(C3SCCS3)cc2)cc1
[22]
  IC50: > 100 µM (active)

## CCOC(=O)c1sc2nc(-c3ccccc3)ccc2c1N
[5]
  EC50: > 67.5 µM (inactive)
[6]
  EC50: > 67.5 µM (inactive)

## O=C(Nc1nc(-c2ccc(F)cc2)cs1)c1cnccn1
[22]
  IC50: > 100 µM (active)

## C=CCn1c(N)c(C(=O)NCC2CCCO2)c2nc3ccccc3nc21 (stereo not given)
[1]
  EC50: > 20 µM (not active)
[2]
  EC50: > 20 µM (not active)

## CC(C)COc1ccc(C(=O)OC2CC(C)(C)OCC2CN(C)C)cc1 (stereo not given)
[23]
  IC50: 8.01 µM (active)
[24]
  IC50: 5.55 µM (active)

## CCOc1ccccc1NC(=O)c1ccc2nccnc2c1
[3]
  EC50: 2.21 µM (active)

## CC(C)(C)CC(=O)Nc1nnc(-c2cccs2)s1
[25]
  EC50: 0.231 µM (active)
[26]
  EC50: < 0.1 µM (active)
[27]
  EC50: 0.335 µM (active)
[28]
  EC50: < 0.1 µM (active)
[29]
  EC50: 0.408 µM (active)

## COc1ccc(-n2nc(C(=O)Nc3ccc4c(c3)OCO4)c3ccccc3c2=O)cc1
[23]
  IC50: 7.17 µM (active)
[24]
  IC50: 7.16 µM (active)
